Source: US20070149487A1, “Antiviral Compositions and Methods” (priority 2005, published 2007)

Columns and labels:
[1] = tested on: human SARS-CoV Toronto-2 strain; assay type: cell-based

Row | SMILES | CC50 (Vero E6 cells) [µM] | EC50 [1] [µM] | Average Inhibition (%) at 32 μM [1] [%] | toxicity to normal cells in cell viability assays (Vero E6 cells; at 23 μM)
1 | O=C(NN=C1C(=O)Nc2ccccc21)NC1CCS(=O)(=O)C1 (racemic) [CS07] | > 100 | > 100 | 1 | –
2 | CN1CCc2c(sc3c2C(=O)NC(c2ccc(O)c(O)c2)N3)C1 (stereo not shown) [CS01] | > 100 | > 100 | 0 | –
3 | CS(=O)(=O)c1ccc2c(c1)nc(C(F)(F)F)n2C1CCNCC1 [CS02] | > 100 | > 100 | 0 | –
4 | NC(c1cc(C(F)(F)F)cc(C(F)(F)F)c1)c1cc(C(F)(F)F)cc(C(F)(F)F)c1 [CS03] | > 100 | > 100 | 0 | –
5 | CC(=O)Nc1ccc(N2C(=O)CC(N3CC(C)OC(C)C3)C2=O)cc1 (stereo not shown) [CS04] | > 100 | > 100 | 4 | –
6 | CCN1C(=O)c2cccc3c(NC(=O)c4ccc([N+](=O)[O-])s4)ccc1c23 [CS05] | 10 | > 100 | 0 | –
7 | CN1CCC(c2nc(-c3ccc(Cl)cc3)cc(C(F)(F)F)n2)CC1 [CS06] | 95 | > 100 | 0 | –
8 | CC(=O)Nc1ccc2c(c1)[C@H]1C=CC[C@@H]1[C@H](c1ccc([N+](=O)[O-])cc1)N2 [CS08] | > 100 | > 100 | 17 | –
9 | O=C(O)c1ccc(C2Nc3c(Cl)cc(Cl)c(Cl)c3C3C=CCC32)cc1 (stereo not shown) [CS09] | 85 | > 100 | 13 | –
10 | N=C1C(=Cc2ccc3c(c2)OCO3)C(=O)C=C2SC(C(F)(F)F)=NN12 [CS10] | 67 | > 100 | 14 | –
11 | O=C(O)c1ccc(N=Cc2c(O)ccc3oc4c(c23)CCCC4)cc1 [CS11] | 76 | 23 | 66 | not toxic
12 | Cc1ccc([N+](=O)[O-])cc1N1C(=O)c2ccc(C(=O)O)cc2C1=O [CS12] | > 100 | > 100 | 13 | –
